Experimental data taken from US20150031655A1, “COMBINATION OF LIVER X RECEPTOR MODULATOR AND ESTROGEN RECEPTOR MODULATOR FOR THE TREATMENT OF AGE-RELATED DISEASES” (UNIVERSITY OF NORTH DAKOTA, priority 2011, published 2015).

Key:
α-synuclein = assay: Western blot of α-synuclein protein levels in SH-SY5Y cells; assay type: cell-based, human; settings: for 27-OHC-induced increase in α-synuclein protein levels / increase in α-synuclein protein / expression levels: 24 h; for 27-OHC-induced increase in α-synuclein protein levels: co-treatment with 10 μM 27-OHC
Method: (§1) Human neuroblastoma SH-SY5Y cells were grown in DMEM/F12 medium containing 10% fetal bovine serum (FBS) and 1% antibiotic/antimycotic mix. Cells were maintained at 37° C. in a saturated humidity atmosphere containing 95% air and 5% CO2.
Treated SH-SY5Y cells were washed with PBS and trypsinized to collect the cells and centrifuged at 5000 g. The pellet was washed again with PBS and homogenized in NE-PER tissue protein extraction reagent (Thermo Scientific, Rockford, Ill.) supplemented with protease and phosphatase inhibitors. Protein concentrations from the cytosolic and nuclear homogenates were determined with BCA protein assay.
Proteins (10 μg) were separated on SDS-PAGE gels, transferred to a polyvinylidene difluoride membrane (BioRad, Hercules, Calif.), and incubated with the following monoclonal antibodies: anti-TH mouse antibody (1:1000; Sigma Aldrich, Saint Louis, Mo.), anti-α-synuclein mouse antibody (1:500; Chemicon, Temecula, Calif.), anti-ERα rabbit antibody (1:500; Abcam, Cambridge, Mass.), anti-ERβ rabbit antibody (1:200; Upstate, Lake Placid, N.Y.), anti-LXRα rabbit antibody (1:500; Abcam, Cambridge, Mass.), anti-LXRβ mouse antibody (1:500; Abcam, Cambridge, Mass.).
β-actin and Lamin A were used as a gel loading control for cytosolic homogenates and nuclear homogenates respectively. The blots were developed with enhanced chemiluminescence (Immmun-star HRP chemiluminescent kit, Bio-Rad, Hercules, Calif.). Bands were visualized on a polyvinylidene difluoride membrane and analyzed by LabWorks 4.5 software on a UVP Bioimaging System (Upland, Calif.). Quantification of results was performed by densitometry and the results analyzed as total integrated densitometric values (arbitrary units).

LXRβ = target: T1, LXRβ (Homo sapiens, UniProt P55055); assay: ChIP, LXRβ binding to the LXRE in the α-synuclein promoter; assay type: cell-based; parameters: endogenous in cells; host or cells: SH-SY5Y human neuroblastoma cells; settings: SH-SY5Y
T1 sequence (P55055 1-460): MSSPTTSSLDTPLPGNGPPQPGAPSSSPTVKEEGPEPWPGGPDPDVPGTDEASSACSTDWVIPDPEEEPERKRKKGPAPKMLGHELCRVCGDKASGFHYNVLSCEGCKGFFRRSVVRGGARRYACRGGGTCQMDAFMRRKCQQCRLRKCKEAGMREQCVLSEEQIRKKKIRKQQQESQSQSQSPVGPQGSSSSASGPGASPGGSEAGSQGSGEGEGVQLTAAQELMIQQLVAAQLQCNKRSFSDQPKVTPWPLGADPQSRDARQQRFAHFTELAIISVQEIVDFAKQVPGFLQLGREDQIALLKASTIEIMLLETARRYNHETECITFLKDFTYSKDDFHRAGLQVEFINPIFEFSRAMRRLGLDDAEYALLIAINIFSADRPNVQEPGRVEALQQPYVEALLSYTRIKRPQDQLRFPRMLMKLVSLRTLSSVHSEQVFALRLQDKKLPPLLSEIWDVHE
Method: as §1
ChIP analysis was performed to evaluate the extent of ERα/ERβ and LXRα/LXRβ binding to the DNA elements in the TH promoter and α-synuclein promoter regions respectively using “SimpleChIP™ Enzymatic Chromatic IP kit” from Cell Signaling (Boston, Mass.).
Briefly, cells from each treatment group (3×10^6 cells) were washed with PBS, trypsinized, centrifuged at 5000 g. The pellet containing the cells was further washed with PBS and cross-linked using 37% formaldehyde for 15 min followed by the addition of glycine solution to cease the cross-linking reaction.
The cells were washed with 4× volumes of 1×PBS and centrifuged at ˜220 g for 5 min. The pellet was resuspended and incubated for 10 min in 5 ml of tissue lysis buffer containing DTT and protease and phosphatase inhibitors. The subsequent steps to isolate the cross-linked chromatin were performed according to the manufacturer's protocol.
The cross-linked chromatin from each sample was apportioned into four equal parts. One quarter of the cross-linked chromatin was set aside as “input.” One quarter of the cross-linked chromatin from each sample was incubated with 5 μg of anti-ERα mouse antibody (Cell Signaling, Boston, Mass.) and 5 μg of anti-ERβ rabbit antibody (Upstate, Bedford, Mass.), or 5 μg of anti-LXRα rabbit antibody (Abcam, Cambridge, Mass.) and 5 μg of anti-LXRβ mouse antibody (Abcam, Cambridge, Mass.), while the remaining one quarter of the cross-linked chromatin from each sample was incubated with 5 μg of normal Rabbit IgG to serve as negative control.
The cross-linked chromatin samples were incubated overnight at 4° C. with their respective antibodies. The DNA-protein complexes were collected with Protein G agarose beads and washed to remove non-specific antibody binding. The DNA from the DNA-protein complexes from all the samples including the input and negative control was reverse cross-linked by incubation with 2 μL of Proteinase K for 2 hours at 65° C.
The crude DNA extract was eluted and then washed several times with wash buffer containing ethanol (provided with the kit) followed by purification with the use of DNA spin columns provided by the manufacturer. The pure DNA was eluted out of the DNA spin columns using 50 μL of the DNA elution buffer provided in the kit. 1 μL of the purified DNA was used for DNA concentration analysis using the “Quant-iT™ dsDNA Assay kit” from Invitrogen (Carlsbad, Calif.). The DNA fragment size was determined by electrophoresis on a 1.2% agarose FlashGel^R system (Lonza, Rockland, Me.).
The relative abundance of the ERα or ERβ antibody precipitated chromatin containing the ERE in the TH promoter region and LXRα or LXRβ antibody precipitated chromatin containing the LXRE in the α-synuclein promoter region was determined by qPCR using an iQ SYBR Green Supermix kit following the manufacturer's instructions (BioRad, Hercules, Calif.) and sequence specific primers (See Table 1 above). […] The fold enrichment of the ERE in the TH promoter region and LXRE in the α-synuclein promoter region was calculated using the ΔΔCt method (K. J. Livak et al., Methods, 25, 402 (2001)) which normalizes ChIP Ct values of each sample to the % input and background.

SMILES | 27-OHC-induced increase in α-synuclein protein levels (α-synuclein) | increase in α-synuclein protein / expression levels (α-synuclein; treatment alone vs control) [fold] | increase of LXRβ binding to the LXRE on the α-synuclein promoter (LXRβ; in combination with 27-OHC) [fold] | increase of LXRβ binding to the LXRE in the α-synuclein promoter (LXRβ; treatment alone vs control) [fold] | basal α-synuclein expression levels (α-synuclein; treatment alone vs control) | 27-OHC-induced increase in LXRβ binding to the LXRE (LXRβ; co-treatment with 27-OHC) | decrease in LXRβ binding to the LXRE on the α-synuclein promoter (LXRβ; treatment alone vs control) [fold]
Cl.O=C(O)Cc1cccc(OCCCN(Cc2cccc(C(F)(F)F)c2Cl)CC(c2ccccc2)c2ccccc2)c1 [GW3965, 3-[3-[N-(2-Chloro-3-trifluoromethylbenzyl)-(2,2-diphenylethyl)amino]propyloxy]phenylacetic acid hydrochloride] | accentuates | 3 | 4 | 3.5 | – | – | –
C[C@@H](CO)CCC[C@@H](C)[C@H]1CC[C@H]2[C@@H]3CC=C4C[C@@H](O)CC[C@]4(C)[C@H]3CC[C@]12C [27-OHC, 27-hydroxycholesterol] | – | 2.3 | – | ~3 | – | – | –
CC(C)CCC[C@@H](C)[C@H]1CC[C@H]2[C@@H]3C[C@@H]4O[C@@]45C[C@@H](OS(=O)(=O)O)CC[C@]5(C)[C@H]3CC[C@]12C [ECHS, 5α,6α-epoxycholesterol-3-sulfate] | significantly attenuated | – | – | – | does not produce any effect | significantly reversed | ~2.8
